Measurements reported in patent EP0863156A1, “Peptides useful as somatostatin antagonists” (American Cyanamid Company, priority 1997, dated 1998).
pKi: −log10 of the molar value. Bridge positions count the residues as written; N and C are the ends. Square brackets hold non-standard residues; d marks the D form. Peptide text beside a SMILES is read from it.

Assays:
SSTR2 [1] = target: T1, SSTR2 (Rattus norvegicus, UniProt P30680); assay: Competitive binding of 125I labeled S-14 to membranes of cells expressing transfected SSTR2 (SPA); parameters: expressed in transfected cells
Method: Membrane preparation. Tissue culture cell lines expressing transfected cDNA clones of SSTR2 and SSTR5 are used as a source of plasma membranes which specifically bind ^125I labeled S-14 (Amersham, Arlington Heights, IL). Cells are removed from culture dishes by incubation at 4°C for 5 minutes in PBS containing 1 mM EDTA, spun down (2,000 rpm, 5') and resuspended in 15 mL homogenization buffer (1 mM sodium bicarbonate pH 7.2, 1 mM EDTA, 1 mM EGTA and the following protease inhibitors: leupeptin and aprotenin at 5 µg/mL and benzamidine and bacitracin at 100 µg/mL). Cells are given 20 strokes with a Dounce homogenizer on ice and spun at 2000 rpm for 10 minutes. Membranes are isolated from the supernatant by centrifugation at 17,000 rpm for 30 minutes. The membrane pellet is washed once in 15 mL homogenization buffer and once in storage buffer (25 mM Tris pH 7.4 containing protease inhibitors). […] The membrane pellet is resuspended in storage buffer, measured for protein concentration (BioRad, CA) and stored at -80°C.
Binding assay. […] Bound radioligand is determined by counting in a Microbeta Liquid Scintillation counter (Wallac, Gaithersburg, MD). Binding data is plotted and IC50 and Ki values are calculated for test compounds using Prism software (Graphpad Software Inc., San Diego, CA) and are shown in Table V. Binding is expressed as Ki, µM.

SSTR2 [2] = target: T1, SSTR2; assay: cAMP accumulation in forskolin-stimulated GH4C1/SSTR2 cells (SPA radioimmunoassay); type: cell-based; parameters: expressed in transfected cells; host or cells: GH4C1 rat pituitary tumor cells; conditions: GH4-C1; test peptide 100 µM; percent reversal of SSTR2 activation by SRIF or MK678; 0% = forskolin plus agonist, 100% = forskolin alone; read-out: cAMP Assay Intrinsic activity
Method: This is the basis of a common assay for SRIF agonists and antagonists, whereby SRIF agonists reduce artificially stimulated cAMP levels, and SRIF antagonists reverse the effect of SRIF. […] This increases the response to SRIF and provides a greater dynamic range for the measurement of SRIF antagonist activity.
Stimulation of cells. GH4C1/SSTR2 cells, grown in DMEM with 10% bovine serum, are released from a tissue culture dish by incubation for several minutes at 37° C with PBS containing 0.5 mM EDTA. Cells are washed in induction buffer (PBS containing 100 µM IBMX (an inhibitor of cAMP breakdown) and 2 mM CaCl2) at room temperature, and resuspended at 2 x 10^6/mL in induction buffer. Into each well of a 96-well tray are added 50 µL of a 2 X concentration of stimulants in induction buffer. […] To initiate stimulation of the cells, 50 µL (100,000) cells are added to each well, mixed by shaking 10 seconds on a plate shaker and placed at 37° C for 15 minutes. Stimulation is arrested and cells are lysed by adding 15 µL 0.33 N HCI to each well and incubating the plate for 30 minutes at 37° C. Samples are neutralized by addition of 15 µL 0.25 N NaOH/50 mM Hepes pH 7.4. Baseline cAMP levels are determined in samples with no added forskolin or SRIF, and each treatment is performed in triplicate.
cAMP assay. To measure accumulated cAMP in the samples, a radioimmunoassay is employed. The scintillation proximity assay (SPA, Amersham, Arlington Heights, IL) allows the rapid measurement of ^125I cAMP bound to a specific antibody without separating bound radioligand from free radioligand. Each of the following reagents (15 µL) are added per well in a 96-well tray: supernatants from the cell stimulation; ^125I cAMP; SPA beads conjugated to monkey anti-rabbit IgG antibodies; and rabbit anti-cAMP antibodies. For the standard curve, known amounts of cAMP (0.2 - 12.8 pmol) are added in place of cell supernatants. The 96-well tray is sealed, shaken at room temperature overnight and measured for bound radioligand in a MicroBeta liquid scintillation counter (Wallac, Gaithersburg. MD).
The intrinsic activity of an SRIF antagonist is the percent reversal of the SSTR2 activation by SRIF or MK678, wherein 0% is defined by cAMP levels in samples treated with forskolin plus SRIF or MK678 and 100% is the cAMP level measured after treatment with forskolin alone. Therefore, increased intrinsic activity of a test compound indicates increased antagonist activity of said test compound.
An inverse agonist is a compound that is not only a pure antagonist (i.e. lacking agonist activity), but also blocks the constitutive activity of an unoccupied receptor. One indication of inverse agonist activity is the ability of a SRIF antagonist to increase cAMP levels in the absence of added SRIF.

T1 sequence (P30680 whole entry): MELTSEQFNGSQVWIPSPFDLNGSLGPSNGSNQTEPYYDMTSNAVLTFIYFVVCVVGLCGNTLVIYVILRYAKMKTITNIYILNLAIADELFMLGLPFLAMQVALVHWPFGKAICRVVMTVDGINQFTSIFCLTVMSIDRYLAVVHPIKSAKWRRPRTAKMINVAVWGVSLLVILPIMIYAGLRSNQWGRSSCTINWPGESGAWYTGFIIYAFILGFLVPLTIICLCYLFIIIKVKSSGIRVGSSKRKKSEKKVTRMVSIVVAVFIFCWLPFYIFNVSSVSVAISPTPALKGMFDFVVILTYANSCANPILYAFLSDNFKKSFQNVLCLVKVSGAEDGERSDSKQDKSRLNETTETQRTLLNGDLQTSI

- pKi (SSTR2 [1]): 5.71
- Emax (SSTR2 [2]): 25.9%
SMILES: CC[C@@H](C)[C@H]1NC(=O)[C@@H](Cc2ccccc2)NC(=O)[C@@H](Cc2c[nH]cn2)NC(=O)[C@@H](N)CSSC[C@@H](C(=O)O)NC(=O)[C@@H](Cc2ccccc2)NC(=O)[C@@H](Cc2c[nH]c3ccccc23)NC(=O)[C@@H](CCCNC(=N)N)NC1=O [Peptide 34, ss C-h-f-i-r-w-f-C] (H-C[dH][dF][dI][dR][dW][dF]C-OH; disulfide 1-8)
